# Measured values from US9670175B2, “Protected succinates for enhancing mitochondrial ATP-production” (NEUROVIVE PHARMACEUTICALS AB, priority 2012, dated 2017).
# Key:
# [1] = system: rotenone-inhibited intact human platelets; assay: mitochondrial complex II screening assay (high-resolution respirometry); assay type: cell-based; conditions: for Mitochondrial Respiration: Complex II-dependent respiration, rotenone-inhibited intact human platelets
# Excerpt: FIG. 1 is a schematic figure of mitochondrial complex II screening assay. […] In the assay, mitochondrial function in intact cells is repressed with the respiratory complex I inhibitor rotenone. Drug candidates are compared with endogenous substrates (succinate) before and after permeabilization of the plasma membrane to evaluate bioenergetic enhancement or inhibition.
# (§1) Human platelets were isolated from venous blood collected in K2EDTA vials through two centrifugation steps in room temperature. After 10 min at 300 g, platelet rich plasma was collected and transferred to new vials. 5 min at 4600 g yielded a platelet pellet that was resuspended in an appropriate amount of plasma. The cell concentration was determined with a Swelab Alfa Hematocytometer (Boule Medical AB, Stockholm, Sweden).
# Measurement of mitochondrial respiration was performed in a high-resolution oxygraph (Oxygraph—2 k, Oroboros Instruments, Innsbruck, Austria) at a constant temperature of 37° C. Platelets were suspended in the 2 mL glass chamber at a concentration of 200-400*10^6 cells/mL.
# (1) Initial screen, complex II-effect, was performed with isolated intact platelets in a buffer containing 110 mM sucrose, HEPES 20 mM, taurine 20 mM, K-lactobionate 60 mM, MgCl2 3 mM, KH2PO4 10 mM, EGTA 0.5 mM, BSA 1 g/l, pH 7.1. After baseline respiration with endogenous substrates was established, complex I was inhibited with Rotenone […]. Drug candidates dissolved in DMSO were titrated in steps to 100 μM, 500 μM and 5 mM final concentration. Subsequently, cell membranes were permeabilised with digitonin (1 mg/1*10^6 pit). After stabilized respiration, Succinate 10 mM was added and after the respiration stabilized the experiment was terminated by addition of the complex III inhibitor Antimycin at final concentration 1 μg/mL and the residual respiration measured. […] In the assay, mitochondrial function in intact cells is repressed with the respiratory complex I inhibitor rotenone. Drug candidates are compared with endogenous substrates before and after permeabilization of the plasma membrane to evaluate bioenergetic enhancement or inhibition.
# (1) The ideal compound stimulates respiration in rotenone-inhibited intact cells at low concentration in the CII-screening protocol without inhibitory effect on succinate stimulated respiration after permeabilization. After inhibition of respiration with mitochondrial toxins, respiration should be halted. Please refer to FIG. 1. and the listing below.
# intact human platelets = assay: mitochondrial convergent respiration screening assay (FCCP-uncoupled, high-resolution respirometry); assay type: cell-based; conditions: control disodium succinate, FIGS. 3A-3C
# Excerpt: FIG. 2 is a schematic figure of mitochondrial convergent respiration screening assay. It describes the protocol for evaluating the potency of novel cell-permeable mitochondrial substrates. In the assay, mitochondrial activity is stimulated by uncoupling the mitochondria with the protonophore FCCP. Drug candidates are titrated to obtain the level of maximum convergent (complex I- and complex II-derived) respiration. After rotenone addition, complex II-dependent stimulation is obtained. The complex III-inhibitor antimycin is added to evaluate non mitochondrial oxygen consumption. The reference substance is succinate.
# as §1, with “Sweden). […]” for “Sweden).”
# (2) In the second protocol, convergent respiration, the same respiration buffer and cell concentrations as described above was used. […] The experiment was terminated by addition of 2 μM Rotenone and 1 μg/mL Antimycin and residual respiration measured. […]
# [2] = previously known related compounds
# [3] = titrated to 100 μM, 500 μM and 5 mM
compound,measurement,setting,value
"CCOC(=O)CCC(=O)OCC [Diethyl succinate, reference compound]",activity in the assays exemplified,[1],inactive
same,Mitochondrial Respiration,[1]; [2],−
"COC(=O)CCC(=O)OC [Dimethyl succinate, reference compound]",activity in the assays exemplified,[1],inactive
same,Mitochondrial Respiration,[1]; [2],−
"COC(=O)CCC(=O)OCOC(=O)C(C)(C)C [Example 2, Succinic Acid 2,2-dimethyl-propionyloxymethyl Ester Methyl Ester]",Mitochondrial Respiration,[1]; [3],++
"COC(=O)CCC(=O)OCOC(C)=O [Example 4, Succinic Acid Acetoxymethyl Ester Methyl Ester]",Mitochondrial Respiration,[1]; [3],++
"CC(=O)OC(C)OC(=O)CCC(=O)OC(C)OC(C)=O (stereo not drawn) [Example 5, Succinic Acid bis-(1-acetoxy-ethyl)ester]",respiration (oxygen flux per unit) with stepwise titration compared to control,intact human platelets,increase in respiration
same,Mitochondrial Respiration,[1]; [3],+++ (stimulation gradually increases and reaches maximum at ≦0.5 mM)
"COC(=O)CCC(=O)OC(C)OC(C)=O (stereo not drawn) [Example 6, Succinic Acid 1-Acetoxy-Ethyl Ester Methyl Ester]",Mitochondrial Respiration,[1]; [3],+
"CCC(OC(C)=O)OC(=O)CCC(=O)OC(CC)OC(C)=O (stereo not drawn) [Example 7, Succinic Acid bis-(1-acetoxy-propyl)ester]",Mitochondrial Respiration,[1]; [3],++
"CCC(=O)OC(C)OC(=O)CCC(=O)OC(C)OC(=O)CC (stereo not drawn) [Example 8, Succinic Acid bis-(1-propionyloxy-ethyl)ester]",Mitochondrial Respiration,[1]; [3],++
"O=C1CCC(=O)OCOCOCO1 [Example 9, 1,3,5,7-Tetraoxa-cycloundecane-8,11-dione]",Mitochondrial Respiration,[1]; [3],+
"CCN(CC)C(=O)COC(=O)CCC(=O)OCOC(C)=O [Example 10, Succinic Acid Acetoxymethyl Ester Diethylcarbamoylmethyl Ester]",Mitochondrial Respiration,[1]; [3],++
"CCOC(=O)OC(C)OC(=O)CCC(=O)OCC(=O)N(CC)CC (stereo not drawn) [Example 11, Succinic Acid Diethylcarbamoylmethyl Ester 1-Ethoxycarbonyloxy-Ethyl Ester]",Mitochondrial Respiration,[1]; [3],(+)
"CCN(CC)C(=O)COC(=O)CCC(=O)OC(C)OC(C)=O (stereo not drawn) [Example 12, Succinic Acid 1-Acetoxy-Ethyl Ester Diethylcarbamoylmethyl Ester]",Mitochondrial Respiration,[1]; [3],+
"CC(=O)OCOC(=O)CCC(=O)OC(C)OC(C)=O (stereo not drawn) [Example 13, Succinic Acid 1-Acetoxy-Ethyl Ester Acetoxymethyl Ester]",respiration (oxygen flux per unit) with stepwise titration compared to control,intact human platelets,increase in respiration
same,Mitochondrial Respiration,[1]; [3],+++ (stimulation gradually increases and reaches maximum at ≦0.5 mM)
"CC1(C)OC(=O)C(OC(=O)CCC(=O)OC2OC(C)(C)OC2=O)O1 (stereo not drawn) [Example 14, Succinic Acid bis-(2,2-dimethyl-5-oxo-[1,3]dioxolan-4-yl)ester]",Mitochondrial Respiration,[1]; [3],+++ (stimulation gradually increases and reaches maximum at ≦0.5 mM)
"COC(=O)C(OC)OC(=O)CCC(=O)OC(OC)C(=O)OC (stereo not drawn) [Example 15, Succinic Acid bis-(methoxy-methoxycarbonyl-methyl)ester]",Mitochondrial Respiration,[1]; [3],(+)
"CCOC(=O)OC(C)OC(=O)CCC(=O)OC(C)OC(C)=O (stereo not drawn) [Example 16, Succinic Acid 1-acetoxy-ethyl Ester 1-ethoxycarbonyloxy-ethyl Ester]",Mitochondrial Respiration,[1]; [3],++
"CC(=O)OC(C)OC(=O)CCC(=O)OCOC(=O)CCC(=O)OC(C)OC(C)=O (stereo not drawn) [Example 17, Succinic Acid 3-(1-acetoxy-ethoxycarbonyl)-propionyloxymethyl Ester 1-acetoxy-ethyl Ester]",Mitochondrial Respiration,[1]; [3],+++ (stimulation gradually increases and reaches maximum at ≦0.5 mM)
"CC(=O)OCOC(=O)CCC(=O)OCOC(=O)CCC(=O)OCOC(C)=O [Example 18, Succinic Acid 3-acetoxymethoxycarbonyl-propionyloxymethyl Ester Acetoxymethyl Ester]",Mitochondrial Respiration,[1]; [3],+++ (stimulation gradually increases and reaches maximum at ≦0.5 mM)
"COC(=O)CCC(=O)O [Monomethyl succinate, reference compound]",activity in the assays exemplified,[1],inactive
same,Mitochondrial Respiration,[1]; [2],−
